Laboratory results taken from PMC7105882, “Plasmodium Perforin-Like Protein Pores on the Host Cell Membrane Contribute in Its Multistage Growth and Erythrocyte Senescence” (Frontiers in Cellular and Infection Microbiology, 2020).

Target: T1, PfPLP2 (rPMD2, pan-MACPF domain of perforin-like protein 2) (Plasmodium falciparum, UniProt Q8I5P0)
T1 construct: gene PF3D7_1216700; rPMD2, recombinant His-tagged MACPF domain of PfPLP2
Experiment: inhibition of erythrocyte lysis by purified rPMD2; thermal protection of purified rPMD2 (modified CETSA)
Type: biochemical

T1 sequence (Q8I5P0 entry or part of it): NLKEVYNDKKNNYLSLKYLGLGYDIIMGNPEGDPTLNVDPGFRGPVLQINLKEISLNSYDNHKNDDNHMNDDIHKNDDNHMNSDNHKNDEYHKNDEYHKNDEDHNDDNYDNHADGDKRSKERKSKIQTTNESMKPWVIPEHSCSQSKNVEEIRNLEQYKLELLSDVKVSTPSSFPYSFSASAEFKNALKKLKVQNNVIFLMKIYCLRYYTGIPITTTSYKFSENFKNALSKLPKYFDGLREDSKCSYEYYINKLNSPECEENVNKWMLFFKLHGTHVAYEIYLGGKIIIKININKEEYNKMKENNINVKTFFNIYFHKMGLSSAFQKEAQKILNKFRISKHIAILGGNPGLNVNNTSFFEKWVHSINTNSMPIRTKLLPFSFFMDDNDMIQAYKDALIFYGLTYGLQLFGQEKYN

Row | Compound | inhibition of erythrocyte lysis by purified rPMD2; thermal protection of purifie
1 | Cn1cc(/C=C2\NC(=S)NC2=O)c2ccccc21 [C01, (Z)-5-((1-methyl-1H-indol-3-yl)methylene)-2-thioxoimidazolidin-4-one] | C01 and C02 could inhibit the activity of both rPMD1 and rPMD2 in the sub-micromolar range
2 | O=C1NC(=S)N/C1=C\c1csc2ccccc12 [C02, (Z)-5-(benzo[b]thiophen-3-ylmethylene)-2-thioxoimidazolidin-4-one] | C01 and C02 could inhibit the activity of both rPMD1 and rPMD2 in the sub-micromolar range
